# Results from patent US12209144B2, “Cyclic peptides as proprotein convertase subtilisin/kexin type 9 (PCSK9) inhibitors for the treatment of metabolic disorders” (Novartis AG, priority 2018, dated 2025).
# Bridge positions count the residues as written; N and C are the ends. Square brackets hold non-standard residues; d marks the D form. Peptide text beside a SMILES is read from it. Phe(4-CF3) = N[C@@H](Cc1ccc(C(F)(F)F)cc1)C(=O)O; Bip = N[C@@H](Cc1ccc(-c2ccccc2)cc1)C(=O)O; NMeF = CN[C@@H](Cc1ccccc1)C(=O)O; NMeE = CN[C@@H](CCC(=O)O)C(=O)O; NMeA = CN[C@@H](C)C(=O)O
# Molecular target: human PCSK9 (Homo sapiens, UniProt Q8NBP7)
# Assay: PCSK9 ligand binding assay (TR-FRET): interference with binding of human PCSK9 to human LDLR
# Conditions: PCSK9 FRET assay, efficacy (Amax); 0% = DMSO, 100% = 1 uM unlabeled human PCSK9
# Procedure: The activity of cyclic polypeptides according to the disclosure as PCSK9 can be assessed using a time resolved fluorescence resonance energy transfer (TR-FRET) assay. This time resolved fluorescence resonance energy transfer (TR-FRET) assay measures the ability of a cyclic polypeptides of the disclosure to interfere with the binding of human PCSK9 to human LDLR, providing measures of both potency (IC50) and efficacy (Amax).
# Solutions of varying concentrations are prepared by diluting a cyclic polypeptide of the disclosure in dimethylsulfoxide (DMSO) and the resulting solutions are pipetted into a plate. DMSO is used as a negative control. An intermediate plate is prepared in by transferring a known amount of each polypeptide solution and of the control from the compound plate into a corresponding well containing assay buffer and mixing thoroughly. A third plate is then prepared to be used for the assay by adding Human PCSK9 Alexa Fluor 647, followed by a known amount of each solution from the intermediate plate. Unlabeled human PCSK9 in assay buffer containing DMSO is used as a positive control for the assay. Following incubation, Human LDLR extracellular domain-Europium Kryptate is added to each well of the assay plate and the resulting mixture is incubated for an additional period of time. The TR-FRET signal is measured and the FRET ratio (FRET/Europium) is used to calculate the IC50 and Amax of the cyclic polypeptides.
# The PCSK9 binding of the cyclic polypeptides of the disclosure were measured using a time resolved fluorescence resonance energy transfer (TR-FRET) assay. This time resolved fluorescence resonance energy transfer (TR-FRET) assay measures the ability of a cyclic polypeptide of the disclosure to interfere with the binding of human PCSK9 to human LDLR, providing measures of both potency (IC50) and efficacy (Amax).
# • Human PCSK9 • Human PCSK9 Alexa Fluor 647 • Human LDLR extracellular domain-Europium Kryptate • Proxi plate-low volume assay plate (PerkinElmer #6008280) • Greiner V-bottom (Greiner BioOne #781280) • Assay Buffer • 20 mM HEPES, pH 7.5 • 150 mM NaCl • 1 mM CaCl2 • 0.01% v/v Tween20 • 0.01% w/v BSA
# A master compound plate was prepared in a Greiner V bottom plate by diluting cyclic polypeptides of the disclosure in dimethylsulfoxide to the correct concentration for the desired top concentration based on the desired final concentration: for a 30 uM final concentration the master plate concentration is 1.5 mM (68 uL DMSO+12 uL 10 mM of a cyclic polypeptide of the disclosure), for a 10 uM final concentration the master plate concentration is 0.5 mM (76 uL DMSO+4 uL 10 mM of a cyclic polypeptide of the disclosure), for a 3 uM final concentration the master plate concentration is 150 uM (69 uL DMSO+1 uL 10 mM a cyclic peptide of the disclosure). These solutions were pipetted into columns 1 and 11 of the compound plate. Threefold serial dilutions were generated in columns 2-10 and 12-20 of the compound plate by transferring 10 uL into 20 μL of DMSO. Columns 21 and 22 of the compound plate were negative controls containing DMSO alone.
# An intermediate plate was generated in a Greiner V bottom plate by transferring 8 uL from each well of the master plate into a corresponding well containing 92 μL of assay buffer and mixing thoroughly.
# A Proxi plate-low volume assay plate was used for the assay. To all wells of the plate was added 10 μL of 16 nM Human PCSK9 Alexa Fluor 647, followed by 5 uL from the intermediate plate. […] Following a 30 minute incubation, 5 μL of 4 nM Human LDLR extracellular domain-Europium Kryptate was added and the mixture was incubated for an additional 2 hours.
# The TR-FRET signal was measured on an EnVision or PheraStar instrument with a […] delay, 330 nm excitation and 665 nm emission (FRET), and 330 nm excitation and 615 nm (Europium). The FRET ratio (FRET/Europium) was used for calculations. […]
# Chain of human PCSK9 (Q8NBP7 153-692): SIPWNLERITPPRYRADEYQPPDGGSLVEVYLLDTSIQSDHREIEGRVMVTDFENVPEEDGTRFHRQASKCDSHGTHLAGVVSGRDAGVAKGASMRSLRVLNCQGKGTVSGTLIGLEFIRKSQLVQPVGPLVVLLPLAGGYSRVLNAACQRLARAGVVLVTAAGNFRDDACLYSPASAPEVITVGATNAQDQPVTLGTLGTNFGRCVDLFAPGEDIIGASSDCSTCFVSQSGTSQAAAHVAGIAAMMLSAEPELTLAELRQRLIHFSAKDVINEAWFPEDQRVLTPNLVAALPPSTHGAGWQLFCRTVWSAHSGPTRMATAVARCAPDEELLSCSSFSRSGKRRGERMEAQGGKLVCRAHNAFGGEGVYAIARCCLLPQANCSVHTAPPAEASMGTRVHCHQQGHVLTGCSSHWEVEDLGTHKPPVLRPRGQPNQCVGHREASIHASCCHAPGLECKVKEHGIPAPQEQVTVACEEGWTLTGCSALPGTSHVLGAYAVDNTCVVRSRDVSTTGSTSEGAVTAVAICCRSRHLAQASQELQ
# Chain of human PCSK9 (Q8NBP7 31-152 partner limits assumed): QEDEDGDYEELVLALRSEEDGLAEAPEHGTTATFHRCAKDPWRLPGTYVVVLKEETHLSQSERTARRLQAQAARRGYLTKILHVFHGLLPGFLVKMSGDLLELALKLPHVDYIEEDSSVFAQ
row,SMILES,Maximum % inhibition [%]
1,CC(C)[C@@H]1NC(=O)[C@H](Cc2ccccc2)NC(=O)CSC[C@@H](C(=O)NCC(N)=O)NC(=O)[C@@H]2CCCN2C(=O)[C@H](CO)NC(=O)[C@H](CC(N)=O)NC(=O)[C@H](CCC(=O)O)N(C)C(=O)[C@H](Cc2ccc(-c3ccccc3)cc2)NC(=O)[C@H](Cc2ccccc2)N(C)C(=O)[C@H](CO)NC(=O)[C@H]([C@@H](C)O)NC(=O)[C@H]([C@@H](C)O)NC(=O)[C@H](CC(=O)O)NC1=O [Example 1-1] ({CH2CO}-FVDTTS[NMeF][Bip][NMeE]NSPCG-NH2; thioether N-13),65
2,"CC(C)[C@@H]1NC(=O)[C@H](Cc2ccccc2)NC(=O)CSC[C@@H](C(=O)NCC(N)=O)NC(=O)[C@@H]2CCCN2C(=O)[C@H](CCCNC(=N)N)NC(=O)[C@H](CC(=O)O)NC(=O)[C@H](C)N(C)C(=O)[C@H](Cc2ccc(-c3ccccc3)cc2)NC(=O)[C@H](C)N(C)C(=O)[C@H](Cc2ccc(-c3ccccc3)cc2)NC(=O)[C@H]([C@@H](C)O)NC(=O)[C@H]([C@@H](C)O)NC(=O)[C@H](CO)NC1=O [Example 1-2, Ac*-F-V-S-T-T-B-(N-Me)A-B-(N-Me)A-D-R-P-C*-G-NH2]",41
3,"CC(C)[C@@H]1NC(=O)[C@H](Cc2ccccc2)NC(=O)CSC[C@@H](C(=O)NCC(N)=O)NC(=O)[C@@H]2CCCN2C(=O)[C@H](CO)NC(=O)[C@H](CC(N)=O)NC(=O)[C@H](C)N(C)C(=O)[C@H](Cc2ccc(-c3ccccc3)cc2)NC(=O)[C@H](Cc2ccccc2)N(C)C(=O)[C@H](CO)NC(=O)[C@H]([C@@H](C)O)NC(=O)[C@H]([C@@H](C)O)NC(=O)[C@H](CC(=O)O)NC1=O [Example 1-3, Ac*-F-V-D-T-T-S-(N-Me)F-B-(N-Me)A-N-S-P-C*-G-NH2] ({CH2CO}-FVDTTS[NMeF][Bip][NMeA]NSPCG-NH2; thioether N-13)",55
4,"CC(C)[C@@H]1NC(=O)[C@H](Cc2ccccc2)NC(=O)CSC[C@@H](C(=O)NCC(N)=O)NC(=O)[C@@H]2CCCN2C(=O)[C@H](Cc2cnc[nH]2)NC(=O)[C@H](CC(N)=O)NC(=O)[C@H](C)N(C)C(=O)[C@H](Cc2ccc(-c3ccccc3)cc2)NC(=O)[C@H](C)N(C)C(=O)[C@H](Cc2ccc(O)cc2)NC(=O)[C@H]([C@@H](C)O)NC(=O)[C@H](CO)NC(=O)[C@H](CC(=O)O)NC1=O [Example 1-4, Ac*-F-V-D-S-T-Y-(N-Me)A-B-(N-Me)A-N-H-P-C*-G-NH2] ({CH2CO}-FVDSTY[NMeA][Bip][NMeA]NHPCG-NH2; thioether N-13)",60
5,"CC(C)[C@@H]1NC(=O)[C@H](Cc2ccccc2)NC(=O)CSC[C@@H](C(=O)NCC(N)=O)NC(=O)[C@@H]2CCCN2C(=O)[C@H](CO)NC(=O)[C@H](CCC(=O)O)NC(=O)[C@H](C)N(C)C(=O)[C@H](Cc2ccc(-c3ccccc3)cc2)NC(=O)[C@H](Cc2ccccc2)N(C)C(=O)[C@H](CO)NC(=O)[C@H]([C@@H](C)O)NC(=O)[C@H]([C@@H](C)O)NC(=O)[C@H](CC(=O)O)NC1=O [Example 1-5, Ac*-F-V-D-T-T-S-(N-Me)F-B-(N-Me)A-E-S-P-C*-G-NH2] ({CH2CO}-FVDTTS[NMeF][Bip][NMeA]ESPCG-NH2; thioether N-13)",95
6,"CC(C)[C@@H]1NC(=O)[C@H](Cc2ccccc2)NC(=O)CSC[C@@H](C(=O)NCC(N)=O)NC(=O)[C@@H]2CCCN2C(=O)[C@H](CO)NC(=O)[C@H](CCC(=O)O)NC(=O)[C@H](C)N(C)C(=O)[C@H](Cc2ccc(C(F)(F)F)cc2)NC(=O)[C@H](Cc2ccccc2)N(C)C(=O)[C@H](CO)NC(=O)[C@H]([C@@H](C)O)NC(=O)[C@H]([C@@H](C)O)NC(=O)[C@H](CC(=O)O)NC1=O [Example 1-6, Ac*-F-V-D-T-T-S-(N-Me)F-(p-CF3)F-(N-Me)A-E-S-P-C*-G-NH2] ({CH2CO}-FVDTTS[NMeF][Phe(4-CF3)][NMeA]ESPCG-NH2; thioether N-13)",97

# The remaining lines, values ahead:
row,Maximum % inhibition [%],SMILES
1,60,"CC(C)[C@@H]1NC(=O)[C@H](Cc2ccccc2)NC(=O)CSC[C@@H](C(=O)NCC(N)=O)NC(=O)[C@@H]2CCCN2C(=O)[C@H](CO)NC(=O)[C@H](CCCCN)NC(=O)[C@H](C)N(C)C(=O)[C@H](Cc2ccc(-c3ccccc3)cc2)NC(=O)[C@H](C)N(C)C(=O)[C@H](CO)NC(=O)[C@H]([C@@H](C)O)NC(=O)[C@H]([C@@H](C)O)NC(=O)[C@H](CC(=O)O)NC1=O [Example 1-7, Ac*-F-V-D-T-T-S-(N-Me)A-B-(N-Me)A-K-S-P-C*-G-NH2] ({CH2CO}-FVDTTS[NMeA][Bip][NMeA]KSPCG-NH2; thioether N-13)"
2,58,"CC(C)[C@@H]1NC(=O)[C@H](Cc2ccccc2)NC(=O)CSC[C@@H](C(=O)NCC(N)=O)NC(=O)[C@@H]2CCCN2C(=O)[C@H](CO)NC(=O)[C@H](CC(=O)O)NC(=O)[C@H](C)N(C)C(=O)[C@H](Cc2ccc(-c3ccccc3)cc2)NC(=O)[C@H](C)N(C)C(=O)[C@H](Cc2ccc(-c3ccccc3)cc2)NC(=O)[C@H]([C@@H](C)O)NC(=O)[C@H]([C@@H](C)O)NC(=O)[C@H](CO)NC1=O [Example 1-8, Ac*-F-V-S-T-T-B-(N-Me)A-B-(N-Me)A-D-S-P-C*-G-NH2] ({CH2CO}-FVSTT[Bip][NMeA][Bip][NMeA]DSPCG-NH2; thioether N-13)"
3,35,"CC(C)[C@@H]1NC(=O)[C@H](Cc2ccccc2)NC(=O)CSC[C@@H](C(=O)NCC(N)=O)NC(=O)[C@@H]2CCCN2C(=O)[C@H](CCCNC(=N)N)NC(=O)[C@H](CC(=O)O)NC(=O)[C@H](C)N(C)C(=O)[C@H](Cc2ccc(-c3ccccc3)cc2)NC(=O)[C@H](Cc2ccccc2)N(C)C(=O)[C@H](CO)NC(=O)[C@H]([C@@H](C)O)NC(=O)[C@H]([C@@H](C)O)NC(=O)[C@H](CO)NC1=O [Example 1-9, Ac*-F-V-S-T-T-S-(N-Me)F-B-(N-Me)A-D-R-P-C*-G-NH2] ({CH2CO}-FVSTTS[NMeF][Bip][NMeA]DRPCG-NH2; thioether N-13)"
4,90,"CC(C)[C@@H]1NC(=O)[C@H](Cc2ccccc2)NC(=O)CSC[C@@H](C(=O)NCC(N)=O)NC(=O)[C@@H]2CCCN2C(=O)[C@H](CO)NC(=O)[C@H](CCC(=O)O)NC(=O)[C@H](C)N(C)C(=O)[C@H](Cc2ccc(-c3ccccc3)cc2)NC(=O)[C@H](C)N(C)C(=O)[C@H](Cc2ccc(-c3ccccc3)cc2)NC(=O)[C@H]([C@@H](C)O)NC(=O)[C@H]([C@@H](C)O)NC(=O)[C@H](CC(=O)O)NC1=O [Example 1-10, Ac*-F-V-D-T-T-B-(N-Me)A-B-(N-Me)A-E-S-P-C*-G-NH2] ({CH2CO}-FVDTT[Bip][NMeA][Bip][NMeA]ESPCG-NH2; thioether N-13)"
5,55,"CC(C)[C@@H]1NC(=O)[C@H](Cc2ccccc2)NC(=O)CSC[C@@H](C(=O)NCC(N)=O)NC(=O)[C@@H]2CCCN2C(=O)[C@H](CCCNC(=N)N)NC(=O)[C@H](CCC(=O)O)NC(=O)[C@H](C)N(C)C(=O)[C@H](Cc2ccc(C(F)(F)F)cc2)NC(=O)[C@H](C)N(C)C(=O)[C@H](Cc2ccc(C(F)(F)F)cc2)NC(=O)[C@H]([C@@H](C)O)NC(=O)[C@H]([C@@H](C)O)NC(=O)[C@H](CO)NC1=O [Example 1-11, Ac*-F-V-S-T-T-(p-CF3)F-(N-Me)A-(p-CF3)F-(N-Me)A-E-R-P-C*-G-NH2] ({CH2CO}-FVSTT[Phe(4-CF3)][NMeA][Phe(4-CF3)][NMeA]ERPCG-NH2; thioether N-13)"

# Same assay, conditions: TR-FRET; Human PCSK9 Alexa Fluor 647 and Human LDLR extracellular domain-Europium Kryptate
row,IC50 [nM],SMILES
1,12,"CC(C)[C@@H]1NC(=O)[C@H](Cc2ccccc2)NC(=O)CSC[C@@H](C(=O)NCC(N)=O)NC(=O)[C@@H]2CCCN2C(=O)[C@H](CO)NC(=O)[C@H](CCC(=O)O)NC(=O)[C@H](C)N(C)C(=O)[C@H](Cc2ccc(C(F)(F)F)cc2)NC(=O)[C@H](Cc2ccccc2)N(C)C(=O)[C@H](CO)NC(=O)[C@H]([C@@H](C)O)NC(=O)[C@H]([C@@H](C)O)NC(=O)[C@H](CC(=O)O)NC1=O [Example 1-6, Ac*-F-V-D-T-T-S-(N-Me)F-(p-CF3)F-(N-Me)A-E-S-P-C*-G-NH2] ({CH2CO}-FVDTTS[NMeF][Phe(4-CF3)][NMeA]ESPCG-NH2; thioether N-13)"
2,410,"CC(C)[C@@H]1NC(=O)[C@H](Cc2ccccc2)NC(=O)CSC[C@@H](C(=O)NCC(N)=O)NC(=O)[C@@H]2CCCN2C(=O)[C@H](CO)NC(=O)[C@H](CCCCN)NC(=O)[C@H](C)N(C)C(=O)[C@H](Cc2ccc(-c3ccccc3)cc2)NC(=O)[C@H](C)N(C)C(=O)[C@H](CO)NC(=O)[C@H]([C@@H](C)O)NC(=O)[C@H]([C@@H](C)O)NC(=O)[C@H](CC(=O)O)NC1=O [Example 1-7, Ac*-F-V-D-T-T-S-(N-Me)A-B-(N-Me)A-K-S-P-C*-G-NH2] ({CH2CO}-FVDTTS[NMeA][Bip][NMeA]KSPCG-NH2; thioether N-13)"
